Patent US20230339900A1, “CASEIN KINASE 1 DELTA MODULATORS” (Janssen Pharmaceutica NV, priority 2020, published 2023)

Legend:
[1] = biological target: human recombinant GST cleaved CSNK1D (Homo sapiens (Human), UniProt P48730); assay: Purified enzyme assay (ADP-Glo Kinase Assay); type: biochemical; settings: 2 nM CSNK1D, peptide substrate 150 μM, ATP 20 μM, 45 minutes room temperature
[2] = biological target: human CSNK1D tagged with nanoluciferase (Homo sapiens (Human), UniProt P48730); assay: Whole Cell nBRET CSNK1D Binding Assay; settings: living CHO cells stably expressing human CSNK1D-nanoluciferase; NanoBret tracer 130 nM; 2 hours 37° C.; read-out: CSNK1D BRET IC50
How it was run: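 Live CHO cells stably expressing nanoluciferase-tagged CSNK1D, seeded in serum-free OptiMEM, received compound dose-response plus NanoBRET tracer (130 nM) for 2 h at 37 °C.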

Sequence of human CSNK1D tagged with nanoluciferase (P48730 whole entry): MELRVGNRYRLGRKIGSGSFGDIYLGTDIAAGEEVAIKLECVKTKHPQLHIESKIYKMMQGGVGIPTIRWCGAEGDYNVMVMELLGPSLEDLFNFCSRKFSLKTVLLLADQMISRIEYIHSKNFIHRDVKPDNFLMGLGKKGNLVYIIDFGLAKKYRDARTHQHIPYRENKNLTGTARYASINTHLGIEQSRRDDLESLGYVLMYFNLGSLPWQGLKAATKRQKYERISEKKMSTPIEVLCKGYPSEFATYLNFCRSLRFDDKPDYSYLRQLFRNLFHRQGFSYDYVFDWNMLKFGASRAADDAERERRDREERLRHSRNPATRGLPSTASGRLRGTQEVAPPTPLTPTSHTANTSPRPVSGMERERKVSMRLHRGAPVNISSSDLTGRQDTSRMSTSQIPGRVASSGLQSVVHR
Sequence of human recombinant GST cleaved CSNK1D (P48730 whole entry): as above

| AC50 [1] | IC50 [2] | Structure (SMILES) |
| --- | --- | --- |
| 1 nM | 24 nM | Cn1cc(-c2ccnc3[nH]cc(Br)c23)c(-c2ccc(F)cn2)n1 [Example 75, 3-Bromo-4-[3-(5-fluoro-2-pyridyl)-1-methyl-pyrazol-4-yl]-1H-pyrrolo[2,3-b]pyridine] |
| 77 nM | 1720 nM | Cn1cc(-c2ccnc3c2ccn3C)c(-c2ccc(F)cn2)n1 [Example 144, 4-[3-(5-Fluoro-2-pyridyl)-1-methyl-pyrazol-4-yl]-1-methyl-pyrrolo[2,3-b]pyridine] |
| 58 nM | 2090 nM | Cc1cc(-c2cn(C)nc2-c2ccc(Cl)cn2)c2cn[nH]c2n1 [Example 26, 4-(3-(5-Chloropyridin-2-yl)-1-methyl-1H-pyrazol-4-yl)-6-methyl-1H-pyrazolo[3,4-b]pyridine] |
| 38 nM | 128 nM | Cn1cc(-c2ccnc3[nH]ccc23)c(-c2ncco2)n1 [Example 7, 2-(1-Methyl-4-(1H-pyrrolo[2,3-b]pyridin-4-yl)-1H-pyrazol-3-yl)oxazole] |
| 5 nM | 28 nM | Cc1c(-c2ccnc3[nH]ccc23)c(-c2ccc(F)cn2)nn1C [Example 51, 4-(3-(5-Fluoropyridin-2-yl)-1,5-dimethyl-1H-pyrazol-4-yl)-1H-pyrrolo[2,3-b]pyridine] |
| 54 nM | 469 nM | Cn1cc(-c2ccnc3[nH]ccc23)c(-c2ccncn2)n1 [Example 44, 4-(1-Methyl-3-pyrimidin-4-yl-pyrazol-4-yl)-1H-pyrrolo[2,3-b]pyridine] |
| 171 nM | 6570 nM | Cn1cc(-c2cc(C(F)F)nc3[nH]ncc23)c(-c2cncc(F)c2)n1 [Example 146, 6-(Difluoromethyl)-4-[3-(5-fluoro-3-pyridyl)-1-methyl-pyrazol-4-yl]-1H-pyrazolo[3,4-b]pyridine] |
| 4 nM | 50 nM | Cn1cc(-c2c(F)cnc3[nH]ccc23)c(-c2ccc(F)cn2)n1 [Example 78, 5-Fluoro-4-[3-(5-fluoro-2-pyridyl)-1-methyl-pyrazol-4-yl]-1H-pyrrolo[2,3-b]pyridine] |
| 34 nM | 251 nM | Cn1cc(-c2ccnc3[nH]ccc23)c(-c2ccc(Cl)cn2)n1 [Example 24, 4-[3-(5-Chloro-2-pyridyl)-1-methyl-pyrazol-4-yl]-1H-pyrrolo[2,3-b]pyridine] |
| 23 nM | 224 nM | Cn1cc(-c2ccnc3[nH]c(C(F)F)cc23)c(-c2ccc(F)cn2)n1 [Example 84, 2-(Difluoromethyl)-4-(3-(5-fluoropyridin-2-yl)-1-methyl-1H-pyrazol-4-yl)-1H-pyrrolo[2,3-b]pyridine] |
| 84 nM | 1460 nM | Cc1cc2c(-c3cn(C)nc3-c3ccc(F)cn3)ccnc2[nH]1 [Example 81, 4-(3-(5-Fluoropyridin-2-yl)-1-methyl-1H-pyrazol-4-yl)-2-methyl-1H-pyrrolo[2,3-b]pyridine] |
| 551 nM | > 10000 nM | Cn1cc(-c2ccnc3[nH]ccc23)c(-c2ccc(OC(F)F)nc2)n1 [Example 23, 4-[3-[6-(Difluoromethoxy)-3-pyridyl]-1-methyl-pyrazol-4-yl]-1H-pyrrolo[2,3-b]pyridine] |
| 310 nM | 4480 nM | Cc1ccc2nccc(-c3cn(C)nc3-c3ccc(F)cn3)c2n1 [Example 131, 8-[3-(5-Fluoro-2-pyridyl)-1-methyl-pyrazol-4-yl]-2-methyl-1,5-naphthyridine] |
| 40 nM | 778 nM | Cn1cc(-c2ccnc3sccc23)c(-c2ccc(F)cn2)n1 [Example 145, 4-[3-(5-Fluoro-2-pyridyl)-1-methyl-pyrazol-4-yl]thieno[2,3-b]pyridine] |

| Structure (SMILES) | AC50 [1] | IC50 [2] |
| --- | --- | --- |
| Cn1cc(-c2ccnc3c2CNC3)c(-c2ccc(F)cn2)n1 [Example 117, 4-(3-(5-Fluoropyridin-2-yl)-1-methyl-1H-pyrazol-4-yl)-6,7-dihydro-5H-pyrrolo[3,4-b]pyridine] | 101 nM | > 10000 nM |
